Test results as given in US20080200454A1, “CARBON-LINKED TETRAHYDRO-PYRAZOLO-PYRIDINE MODULATORS OF CATHEPSIN S” (priority 2007, published 2008).
Like-named read-outs stand apart in the source and are kept apart here.

Target: Recombinant human cathepsin S (CatS) (Homo sapiens, UniProt P25774)
Test: Recombinant human cathepsin S (CatS) inhibition assay, fluorogenic substrate Z-Valine-Valine-Arginine-AMC;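 also: Baculovirus-expressed CatS in pH 5.0 sodium acetate buffer with DTT and NaCl, fluorescence read each minute over 20 min, inhibition derived from rate slope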

Sequence of Recombinant human cathepsin S (CatS) (P25774 115-331): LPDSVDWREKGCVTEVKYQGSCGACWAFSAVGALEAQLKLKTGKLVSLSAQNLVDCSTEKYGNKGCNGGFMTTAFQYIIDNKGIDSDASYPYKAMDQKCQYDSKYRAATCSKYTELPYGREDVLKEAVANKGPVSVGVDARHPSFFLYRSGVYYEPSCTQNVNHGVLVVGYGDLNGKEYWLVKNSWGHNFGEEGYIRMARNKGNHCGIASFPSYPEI

Compound | IC50 | IC50 (CatS IC50)
CC(=O)N1CCc2c(c(-c3ccc(Cl)c(C#Cc4ccc(CNCc5ccc(Cl)cc5)cc4)c3)nn2CCCN2CCSCC2)C1 [Example 412, 1-[4-({5-[5-Acetyl-1-(3-thiomorpholin-4-ylpropyl)-4,5,6,7-tetrahydro-1H-pyrazolo[4,3-c]pyridin-3-yl]-2-chlorophenyl}ethynyl)phenyl]-N-[(4-chlorophenyl)methyl]methanamine] | 160 nM | 
O=C(CO)N1CCc2c(c(-c3ccc(Cl)c(C#Cc4ccc(CNCc5ccc(Cl)cc5)cc4)c3)nn2CCCN2CCSCC2)C1 [Example 413, 2-[3-(4-Chloro-3-{[4-({[(4-chlorophenyl)methyl]amino}methyl)phenyl]ethynyl}phenyl)-1-(3-thiomorpholin-4-ylpropyl)-1,4,6,7-tetrahydro-5H-pyrazolo[4,3-c]pyridin-5-yl]-2-oxoethanol] |  | 100 nM
NC(=O)C(=O)N1CCc2c(c(-c3ccc(Cl)c(C#Cc4ccc(CNCc5ccc(Cl)cc5)cc4)c3)nn2CCCN2CCSCC2)C1 [Example 414, 2-[3-(4-Chloro-3-{[4-({[(4-chlorophenyl)methyl]amino}methyl)phenyl]ethynyl}phenyl)-1-(3-thiomorpholin-4-ylpropyl)-1,4,6,7-tetrahydro-5H-pyrazolo[4,3-c]pyridin-5-yl]-2-oxoacetamide] | 30 nM | 
CS(=O)(=O)N1CCc2c(c(-c3ccc(Cl)c(C#Cc4ccc5c(c4)CNCC5)c3)nn2CCCN2CCN(C3CC3)CC2)C1 [Example 415, 7-[(2-Chloro-5-{1-[3-(4-cyclopropylpiperazin-1-yl)propyl]-5-(methylsulfonyl)-4,5,6,7-tetrahydro-1H-pyrazolo[4,3-c]pyridin-3-yl}phenyl)ethynyl]-1,2,3,4-tetrahydroisoquinoline] | 90 nM | 
CS(=O)(=O)N1CCc2c(c(-c3ccc(Cl)c(C#Cc4ccc(CNCc5ccc(Cl)cc5)cc4)c3)nn2CCCN2CCN(c3ccncc3)CC2)C1 [Example 416, 1-{4-[(2-Chloro-5-{5-(methylsulfonyl)-1-[3-(4-pyridin-4-ylpiperazin-1-yl)propyl]-4,5,6,7-tetrahydro-1H-pyrazolo[4,3-c]pyridin-3-yl}phenyl)ethynyl]phenyl}-N-[(4-chlorophenyl)methyl]methanamine] |  | 70 nM
CS(=O)(=O)N1CCc2c(c(-c3ccc(Cl)c(C#Cc4ccc(CNCc5ccc(Cl)cc5)cc4)c3)nn2CCCN2CCN(c3cccnc3)CC2)C1 [Example 417, 1-{4-[(2-Chloro-5-{5-(methylsulfonyl)-1-[3-(4-pyridin-3-ylpiperazin-1-yl)propyl]-4,5,6,7-tetrahydro-1H-pyrazolo[4,3-c]pyridin-3-yl}phenyl)ethynyl]phenyl}-N-[(4-chlorophenyl)methyl]methanamine] |  | 20 nM
COC(=O)C1COCCN1CCCn1nc(-c2ccc(Cl)c(C#Cc3ccc(CNCc4ccc(Cl)cc4)cc3)c2)c2c1CCN(S(C)(=O)=O)C2 (stereo not shown) [Example 418, Methyl 4-{3-[3-(4-chloro-3-{[4-({[(4-chlorophenyl)methyl]amino}methyl)phenyl]ethynyl}phenyl)-5-(methylsulfonyl)-4,5,6,7-tetrahydro-1H-pyrazolo[4,3-c]pyridin-1-yl]propyl}morpholine-3-carboxylate] | 1030 nM | 
CS(=O)(=O)N1CCc2c(c(-c3ccc(Cl)c(C#Cc4ccc(CNCc5ccc(Cl)cc5)cc4)c3)nn2CCCN2CCOCC2CO)C1 (stereo not shown) [Example 419, (4-{3-[3-(4-Chloro-3-{[4-({[(4-chlorophenyl)methyl]amino}methyl)phenyl]ethynyl}phenyl)-5-(methylsulfonyl)-4,5,6,7-tetrahydro-1H-pyrazolo[4,3-c]pyridin-1-yl]propyl}morpholin-3-yl)methanol] | 180 nM | 
CS(=O)(=O)N1CCc2c(c(-c3ccc(Cl)c(C#Cc4ccc(CNCc5ccc(Cl)cc5)cc4)c3)nn2CCCN2C[C@@H]3C[C@H]2CO3)C1 [Example 420, 1-[4-({2-Chloro-5-[5-(methylsulfonyl)-1-{3-[(1S,4S)-2-oxa-5-azabicyclo[2.2.1]hept-5-yl]propyl}-4,5,6,7-tetrahydro-1H-pyrazolo[4,3-c]pyridin-3-yl]phenyl}ethynyl)phenyl]-N-[(4-chlorophenyl)methyl]methanamine] | 100 nM | 
CS(=O)(=O)N1CCc2c(c(-c3ccc(Cl)c(C#Cc4ccc(CNCc5cccs5)cc4)c3)nn2CCCN2CCOCC2)C1 [Example 421, 1-[4-({2-Chloro-5-[5-(methylsulfonyl)-1-(3-morpholin-4-ylpropyl)-4,5,6,7-tetrahydro-1H-pyrazolo[4,3-c]pyridin-3-yl]phenyl}ethynyl)phenyl]-N-(2-thienylmethyl)methanamine] |  | 190 nM
CS(=O)(=O)N1CCc2c(c(-c3ccc(Cl)c(C#Cc4ccc(CNCc5ccsc5)cc4)c3)nn2CCCN2CCOCC2)C1 [Example 422, 1-[4-({2-Chloro-5-[5-(methylsulfonyl)-1-(3-morpholin-4-ylpropyl)-4,5,6,7-tetrahydro-1H-pyrazolo[4,3-c]pyridin-3-yl]phenyl}ethynyl)phenyl]-N-(3-thienylmethyl)methanamine] |  | 170 nM
CS(=O)(=O)N1CCc2c(c(-c3ccc(Cl)c(C#Cc4ccc(CNCCc5cccs5)cc4)c3)nn2CCCN2CCOCC2)C1 [Example 423, N-{[4-({2-Chloro-5-[5-(methylsulfonyl)-1-(3-morpholin-4-ylpropyl)-4,5,6,7-tetrahydro-1H-pyrazolo[4,3-c]pyridin-3-yl]phenyl}ethynyl)phenyl]methyl}-2-(2-thienyl)ethanamine] |  | 270 nM
Cc1ccsc1CNCc1ccc(C#Cc2cc(-c3nn(CCCN4CCOCC4)c4c3CN(S(C)(=O)=O)CC4)ccc2Cl)cc1 [Example 424, 1-[4-({2-Chloro-5-[5-(methylsulfonyl)-1-(3-morpholin-4-ylpropyl)-4,5,6,7-tetrahydro-1H-pyrazolo[4,3-c]pyridin-3-yl]phenyl}ethynyl)phenyl]-N-[(3-methyl-2-thienyl)methyl]methanamine] |  | 200 nM
CS(=O)(=O)N1CCc2c(c(-c3ccc(Cl)c(C#Cc4ccc(CNCc5ccco5)cc4)c3)nn2CCCN2CCOCC2)C1 [Example 425, 1-[4-({2-Chloro-5-[5-(methylsulfonyl)-1-(3-morpholin-4-ylpropyl)-4,5,6,7-tetrahydro-1H-pyrazolo[4,3-c]pyridin-3-yl]phenyl}ethynyl)phenyl]-N-(furan-2-ylmethyl)methanamine] |  | 70 nM
Cc1cc(CNCc2ccc(C#Cc3cc(-c4nn(CCCN5CCOCC5)c5c4CN(S(C)(=O)=O)CC5)ccc3Cl)cc2)c(C(F)(F)F)o1 [Example 426, 1-[4-({2-Chloro-5-[5-(methylsulfonyl)-1-(3-morpholin-4-ylpropyl)-4,5,6,7-tetrahydro-1H-pyrazolo[4,3-c]pyridin-3-yl]phenyl}ethynyl)phenyl]-N-{[5-methyl-2-(trifluoromethyl)furan-3-yl]methyl}methanamine] |  | 390 nM
CS(=O)(=O)N1CCc2c(c(-c3ccc(Cl)c(C#Cc4cncc(CNCc5ccccc5)c4)c3)nn2CCCN2CCOCC2)C1 [Example 427, 1-[5-({2-Chloro-5-[5-(methylsulfonyl)-1-(3-morpholin-4-ylpropyl)-4,5,6,7-tetrahydro-1H-pyrazolo[4,3-c]pyridin-3-yl]phenyl}ethynyl)pyridin-3-yl]-N-(phenylmethyl)methanamine] | 1990 nM | 
CS(=O)(=O)N1CCc2c(c(-c3ccc(Cl)c(C#Cc4cncc(CNCc5ccc(Cl)cc5)c4)c3)nn2CCCN2CCOCC2)C1 [Example 428, 1-[5-({2-Chloro-5-[5-(methylsulfonyl)-1-(3-morpholin-4-ylpropyl)-4,5,6,7-tetrahydro-1H-pyrazolo[4,3-c]pyridin-3-yl]phenyl}ethynyl)pyridin-3-yl]-N-[(4-chlorophenyl)methyl]methanamine] |  | 3750 nM
NC(=O)C(=O)N1CCc2c(c(-c3ccc(Cl)c(C#Cc4ccc(CNCc5ccc(Cl)cc5)cc4)c3)nn2CCCN2CCN(c3ccccc3)CC2)C1 [Example 429, 2-{3-(4-Chloro-3-{[4-({[(4-chlorophenyl)methyl]amino}methyl)phenyl]ethynyl}phenyl)-1-[3-(4-phenylpiperazin-1-yl)propyl]-1,4,6,7-tetrahydro-5H-pyrazolo[4,3-c]pyridin-5-yl}-2-oxoacetamide] | 20 nM | 
NC(=O)N1CCc2c(c(-c3ccc(Cl)c(C#Cc4ccc(CNCc5ccc(Cl)cc5)cc4)c3)nn2CCCN2CCN(c3ccccc3)CC2)C1 [Example 430, 3-(4-Chloro-3-{[4-({[(4-chlorophenyl)methyl]amino}methyl)phenyl]ethynyl}phenyl)-1-[3-(4-phenylpiperazin-1-yl)propyl]-1,4,6,7-tetrahydro-5H-pyrazolo[4,3-c]pyridine-5-carboxamide] | 40 nM | 
Cc1ccsc1CNCc1ccc(C#Cc2cc(-c3nn(CCCN4CCOC[C@@H]4C)c4c3CN(S(C)(=O)=O)CC4)ccc2Cl)cc1 [Example 431, 1-[4-({2-Chloro-5-[1-{3-[(3S)-3-methylmorpholin-4-yl]propyl}-5-(methylsulfonyl)-4,5,6,7-tetrahydro-1H-pyrazolo[4,3-c]pyridin-3-yl]phenyl}ethynyl)phenyl]-N-[(3-methyl-2-thienyl)methyl]methanamine] | 170 nM | 
C[C@H]1COCCN1CCCn1nc(-c2ccc(Cl)c(C#Cc3ccc(CNCc4ccco4)cc3)c2)c2c1CCN(S(C)(=O)=O)C2 [Example 432, 1-[4-({2-Chloro-5-[1-{3-[(3S)-3-methylmorpholin-4-yl]propyl}-5-(methylsulfonyl)-4,5,6,7-tetrahydro-1H-pyrazolo[4,3-c]pyridin-3-yl]phenyl}ethynyl)phenyl]-N-(furan-2-ylmethyl)methanamine] |  | 230 nM
C[C@H]1COCCN1CCCn1nc(-c2ccc(Cl)c(C#Cc3ccc(CNCc4cccs4)cc3)c2)c2c1CCN(S(C)(=O)=O)C2 [Example 433, 1-[4-({2-Chloro-5-[1-{3-[(3S)-3-methylmorpholin-4-yl]propyl}-5-(methylsulfonyl)-4,5,6,7-tetrahydro-1H-pyrazolo[4,3-c]pyridin-3-yl]phenyl}ethynyl)phenyl]-N-(2-thienylmethyl)methanamine] |  | 240 nM
